How the values were obtained:
Experiment in all cases: relative viability (nuclei count vs DMSO), 5 days (fraction); higher = more cells survive
Apatinib + Dasatinib = compound: N#CC1(c2ccc(NC(=O)c3cccnc3NCc3ccncc3)cc2)CCCC1 [Apatinib] + Cc1nc(Nc2ncc(C(=O)Nc3c(C)cccc3Cl)s2)cc(N2CCN(CCO)CC2)n1 [Dasatinib] (partner 0.075 µM)
Outline: (§1)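 Medians of duplicate plates are given as relative viability. That measure is the nuclei count in treated wells divided by the count in vehicle wells. Counts were taken on 4× images of lung cancer cell lines in 1536-well plates, 5 days after pin-tool dosing the day after seeding with one drug alone or a fixed anchor-drug dose plus five library-drug doses (not always all listed) in √10 steps.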

Metformin + Bortezomib = compound: CN(C)C(=N)NC(=N)N [Metformin] + CC(C)C[C@H](NC(=O)[C@H](Cc1ccccc1)NC(=O)c1cnccn1)B(O)O [Bortezomib] (partner 0.002 µM)
Outline: as §1

Metformin + Decitabine = compound: CN(C)C(=N)NC(=N)N [Metformin] + Nc1ncn([C@H]2C[C@H](O)[C@@H](CO)O2)c(=O)n1 [Decitabine] (partner 2 µM)
Outline: as §1

Apatinib + Luminespib = compound: N#CC1(c2ccc(NC(=O)c3cccnc3NCc3ccncc3)cc2)CCCC1 [Apatinib] + CCNC(=O)c1noc(-c2cc(C(C)C)c(O)cc2O)c1-c1ccc(CN2CCOCC2)cc1 [Luminespib] (partner 0.01 µM)
Outline: as §1

Cell Line | relative viability (Apatinib + Dasatinib; first compound 0.08 µM) | relative viability (Apatinib + Dasatinib; first compound 0.253 µM) | relative viability (Apatinib + Dasatinib; first compound 0.8 µM) | relative viability (Apatinib + Dasatinib; first compound 2.53 µM) | relative viability (Apatinib + Dasatinib; first compound 8 µM) | relative viability (Metformin + Bortezomib; first compound 10 µM) | relative viability (Metformin + Bortezomib; first compound 31.62 µM) | relative viability (Metformin + Bortezomib; first compound 100 µM) | relative viability (Metformin + Bortezomib; first compound 316.23 µM) | relative viability (Metformin + Bortezomib; first compound 1000 µM) | relative viability (Metformin + Decitabine; first compound 10 µM) | relative viability (Metformin + Decitabine; first compound 31.62 µM) | relative viability (Metformin + Decitabine; first compound 100 µM) | relative viability (Metformin + Decitabine; first compound 316.23 µM) | relative viability (Metformin + Decitabine; first compound 1000 µM) | relative viability (Apatinib + Luminespib; first compound 0.08 µM) | relative viability (Apatinib + Luminespib; first compound 0.253 µM) | relative viability (Apatinib + Luminespib; first compound 2.53 µM) | relative viability (Apatinib + Luminespib; first compound 8 µM) | relative viability (Apatinib + Luminespib; first compound 0.8 µM)
PC-14 | 0.284 | 0.238 | 0.203 | 0.208 | 0.178 | 0.818 | 0.943 | 0.767 | 0.906 | 0.82 | 0.27 | 0.291 | 0.186 | 0.211 | 0.235 | 0.121 | 0.15 | 0.167 | 0.144 | 
HCC-78 | 0.332 | 0.289 | 0.361 | 0.333 | 0.302 | 0.842 | 0.797 | 0.929 | 0.831 | 0.853 |  | 0.605 | 0.768 | 0.779 | 0.658 |  |  |  |  | 
NCI-H322M | 0.253 | 0.229 | 0.245 | 0.256 | 0.247 | 1.32 | 1.45 | 1.19 | 1.36 | 1.48 | 0.698 | 0.673 | 0.718 | 0.675 | 0.746 | 0.871 | 0.845 | 1.01 | 1.07 | 0.9
NCI-H2023 | 0.566 | 0.639 | 0.536 | 0.392 | 0.358 |  | 1.03 | 0.964 |  | 1.1 | 0.224 | 0.223 | 0.203 | 0.207 | 0.186 | 0.981 | 0.917 | 0.507 | 0.649 | 0.708
NCI-H1651 | 0.386 | 0.492 | 0.387 | 0.251 | 0.365 | 0.989 | 1.15 | 1.16 | 1.04 | 1.08 | 0.485 | 0.687 | 0.572 | 0.476 | 0.755 | 0.981 | 1.12 | 0.579 | 0.652 | 0.855
HCC-15 | 0.686 | 0.626 | 0.605 | 0.574 | 0.63 | 0.617 | 1.08 | 1.04 | 0.932 | 1.09 | 0.548 | 0.636 | 0.703 | 0.662 | 0.703 | 0.364 | 0.241 | 0.317 | 0.316 | 0.302
NCI-H3122 | 0.858 | 0.666 | 0.836 | 0.845 | 0.538 | 0.824 | 0.97 | 0.921 | 0.863 | 0.886 | 0.343 | 0.371 | 0.361 | 0.359 | 0.369 | 0.0784 | 0.0827 | 0.0782 | 0.0871 | 0.0738
LOU-NH91 | 0.505 | 0.552 | 0.498 | 0.528 | 0.471 | 0.515 | 0.504 | 0.511 | 0.56 | 0.474 | 0.787 | 0.799 | 0.848 | 0.797 | 0.79 | 0.354 | 0.363 | 0.356 | 0.354 | 0.386
LXF-289 | 0.234 | 0.253 | 0.232 | 0.177 | 0.182 | 0.943 | 0.904 | 0.893 | 0.933 | 1.01 | 0.312 | 0.367 | 0.345 | 0.312 | 0.378 | 0.644 | 0.857 | 0.652 | 0.743 | 0.633
NCI-H650 | 0.37 | 0.435 | 0.483 | 0.444 | 0.403 | 0.989 | 1.12 | 0.781 | 0.782 | 1.18 | 0.274 | 0.313 | 0.314 | 0.301 | 0.312 | 0.774 | 0.831 | 0.645 | 0.524 | 0.872
NCI-H1975 | 0.469 | 0.313 | 0.262 | 0.26 | 0.281 | 0.335 | 0.333 | 0.411 | 0.375 | 0.433 | 0.334 | 0.402 | 0.65 | 0.323 | 0.394 | 0.167 | 0.195 | 0.176 | 0.262 | 0.229
ChaGo-K-1 | 0.603 | 0.535 | 0.642 | 0.547 | 0.501 | 1.03 | 1.03 | 0.993 | 0.972 | 0.628 | 0.524 | 0.535 | 0.512 | 0.481 | 0.509 | 0.618 | 0.679 | 0.519 | 0.564 | 0.661
COR-L 105 | 0.357 | 0.349 | 0.351 | 0.3 | 0.269 | 1.07 | 1.05 | 1.04 | 0.874 | 1.17 | 0.588 | 0.64 | 0.695 | 0.719 | 0.697 | 0.796 | 0.789 | 0.697 | 0.67 | 0.896
A-427 | 0.706 | 0.66 | 0.798 | 0.671 | 0.575 | 0.997 | 1 | 0.94 | 0.963 | 0.901 | 0.524 | 0.587 | 0.571 | 0.521 | 0.574 | 0.924 | 0.779 | 0.72 | 0.8 | 0.928
NCI-H2087 | 0.929 | 0.747 | 0.763 | 0.685 | 0.524 | 0.564 | 0.791 | 0.691 | 0.786 | 0.744 | 0.251 | 0.231 | 0.294 | 0.294 | 0.3 | 0.186 | 0.183 | 0.135 | 0.149 | 0.185
NCI-H358 | 0.188 | 0.151 | 0.139 | 0.206 | 0.186 |  |  |  |  |  | 0.202 | 0.225 | 0.214 | 0.253 | 0.213 | 0.246 | 0.368 | 0.382 | 0.236 | 0.684
NCI-H647 | 0.506 | 0.253 | 0.175 | 0.169 | 0.152 | 1.19 | 1.15 | 1.18 | 0.921 | 1.17 | 0.316 | 0.366 | 0.381 |  | 0.434 | 0.235 | 0.144 | 0.136 | 0.23 | 0.267
